Laboratory results as given in the supplement of paper PMC11061612.

Tests used:
Assay in all cases: combination Emax (second highest fraction inhibited in the dose matrix, 72 h); higher = more inhibition; extreme values may be limits of the assay
[1] = test system: IGROV-1 (Ovarian Carcinoma)
Procedure, shortened: (§1)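 After 24 hours at 37°C and 5% CO2 in 1536-well plates, cells in DMEM/F12 or RPMI plus 10% FBS received two-drug dose matrices for 72 hours. Viability came from CellTiter-Glo 2.0 luminescence and was scaled as inhibition, anchored at 0 by vehicle wells and at 1 by blank wells. Combination Emax is taken as the second-highest inhibition in the matrix, and Bliss excess as the observed combination effect less EA + EB − EA·EB, with EA and EB the single-agent effects.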

[2] = test system: ATN-1 (T-Lymphoblastic Leukemia)
Procedure, shortened: as §1

[3] = test system: RPMI-8402 (T-Lymphoblastic Leukemia)
Procedure, shortened: as §1

[4] = test system: CAL-85-1 (Breast Carcinoma)
Procedure, shortened: as §1

[5] = test system: GRANTA-519 (B-Cell Non-Hodgkin's Lymphoma)
Procedure, shortened: as §1

[6] = test system: NCI-H2170 (Squamous Cell Lung Carcinoma)
Procedure, shortened: as §1

[7] = test system: MRK-nu-1 (Breast Carcinoma)
Procedure, shortened: as §1

[8] = test system: BC-1 (B-Cell Non-Hodgkin's Lymphoma)
Procedure, shortened: as §1

[9] = test system: NCI-H1648 (Lung Adenocarcinoma)
Procedure, shortened: as §1

[10] = test system: SCC90 (Head and Neck Carcinoma)
Procedure, shortened: as §1

[11] = test system: OCI-M1 (Acute Myeloid Leukemia)
Procedure, shortened: as §1

NCI-H2452 (Mesothelioma) = test system: NCI-H2452 (Mesothelioma)
Procedure, shortened: as §1

[12] = test system: NCI-H1975 (Lung Adenocarcinoma)
Procedure, shortened: as §1

[13] = test system: SBC-5 (Small Cell Lung Carcinoma)
Procedure, shortened: as §1

MG-63 (Osteosarcoma) = test system: MG-63 (Osteosarcoma)
Procedure, shortened: as §1

[14] = test system: HT-3 (Cervical Carcinoma)
Procedure, shortened: as §1

[15] = test system: JURL-MK1 (Chronic Myelogenous Leukemia)
Procedure, shortened: as §1

DK-MG (Glioblastoma) = test system: DK-MG (Glioblastoma)
Procedure, shortened: as §1

[16] = test system: KNS-62 (Squamous Cell Lung Carcinoma)
Procedure, shortened: as §1

SMILES	combination Emax [1]	combination Emax [2]	combination Emax [3]	combination Emax [4]	combination Emax [5]	combination Emax [6]	combination Emax [7]	combination Emax [8]	combination Emax [9]	combination Emax [10]	combination Emax [11]	combination Emax (NCI-H2452 (Mesothelioma))	combination Emax [12]	combination Emax [13]	combination Emax (MG-63 (Osteosarcoma))	combination Emax [14]	combination Emax [15]	combination Emax (DK-MG (Glioblastoma))	combination Emax [16]
Cc1c2c(nn1C)CSCc1cc(n(C)n1)CSc1cc(c3ccccc3c1)OCCCc1c(C(=O)O)n(C)c3c-2c(Cl)ccc13 [AZD5991] + Cc1cc2ncnn2cc1Nc1ncc2c(n1)n(C1CCOCC1)c(=O)n2C [AZD7648] (first compound max 1 µM, 7x7, partner max 10 µM)	0.625	0.925	0.836	0.402	0.214	0.397	1	1	0.892	0.937	0.145	0.409	0.46	0.419	0.329	0.353	0.773	0.509	0.277
CC1(C)CCC(CN2CCN(c3ccc(C(=O)NS(=O)(=O)c4ccc(NCC5CCOCC5)c([N+](=O)[O-])c4)c(Oc4cnc5[nH]ccc5c4)c3)CC2)=C(c2ccc(Cl)cc2)C1 [Venetoclax] + C[C@@H](Nc1cc(F)cc(F)c1)c1cc(C(=O)N(C)C)cc2c(=O)cc(N3CCOCC3)oc12 [AZD8186] (first compound max 1 µM, 7x7, partner max 3 µM)	0.668	0.616	0.431	0.146	0.437	0.166	0.175	0.264	0.454	0.29	0.0849	0.268	0.22	0.163	0.143	0.0586	0.095	0.372	0.133
CC1(C)CCC(CN2CCN(c3ccc(C(=O)NS(=O)(=O)c4ccc(NCC5CCOCC5)c([N+](=O)[O-])c4)c(Oc4cnc5[nH]ccc5c4)c3)CC2)=C(c2ccc(Cl)cc2)C1 [Venetoclax] + C=CCn1c(=O)c2cnc(Nc3ccc(N4CCN(C)CC4)cc3)nc2n1-c1cccc(C(C)(C)O)n1 [AZD1775] (first compound max 1 µM, partner max 1 µM)	0.819	0.977	1	0.473	1	0.652	0.294	1	0.595	0.838	0.912	0.739	0.393	0.459	0.626	0.191	0.999	0.452	0.544
CC1(C)CCC(CN2CCN(c3ccc(C(=O)NS(=O)(=O)c4ccc(NCC5CCOCC5)c([N+](=O)[O-])c4)c(Oc4cnc5[nH]ccc5c4)c3)CC2)=C(c2ccc(Cl)cc2)C1 [Venetoclax] + CCN(CCO)CCCOc1ccc2c(Nc3cc(CC(=O)Nc4cccc(F)c4)[nH]n3)ncnc2c1 [AZD2811] (first compound max 1 µM, 7x7, partner max 1 µM)	0.255	0.866	0.735	0.156	0.925	0.545	0.612	0.674	0.201	0.552	0.276	0.259	0.216	0.266	0.23	0.178	0.445	0.283	0.275
CN(C)CCCOc1ccc(-c2ccc3ncc4c(c3c2)n(C2CCOCC2)c(=O)n4C)cn1 [AZD0156] + C=CCn1c(=O)c2cnc(Nc3ccc(N4CCN(C)CC4)cc3)nc2n1-c1cccc(C(C)(C)O)n1 [AZD1775] (first compound max 1 µM, partner max 1 µM)	0.769	1	1	0.363	0.816	0.7	0.246	0.999	0.587	0.777	0.869	0.589	0.356	0.423	0.526	0.331	0.989	0.331	0.185
CC1(C)CCC(CN2CCN(c3ccc(C(=O)NS(=O)(=O)c4ccc(NCC5CCOCC5)c([N+](=O)[O-])c4)c(Oc4cnc5[nH]ccc5c4)c3)CC2)=C(c2ccc(Cl)cc2)C1 [Venetoclax] + Cc1cc2ncnn2cc1Nc1ncc2c(n1)n(C1CCOCC1)c(=O)n2C [AZD7648] (first compound max 1 µM, 7x7, partner max 10 µM)	0.539	0.47	0.287	0.284	0.332	0.282	0.523	0.516	0.43	0.351	0.234	0.259	0.392	0.212	0.201	0.135	0.356	0.265	0.219
